{
  "source": "paper PMC11312933",
  "about": "“Mystery of the Passerini Reaction for the Synthesis of the Antimicrobial Peptidomimetics against Nosocomial Pathogenic Bacteria” (International Journal of Molecular Sciences, 2024)",
  "key": {"[1]": {"experiment": "MTT cytotoxicity assay", "conditions": "mouse", "method": "(§1) The cytotoxic effects of the tested peptidomimetics 1–16 on BALB/c3T3 mouse fibroblast cells were determined using the MTT assay after 24 h of incubation at five different concentrations (1, 2, 4, 6, and 8 µg/mL). The MTT test is based on the ability of the mitochondrial dehydrogenase enzymes to convert an orange, water-soluble tetrazolium salt (3-(4,5-dimethylthiazol-2-yl)-2,5-diphenyltetrazolium bromide) into an insoluble formazan, which is a dark blue product of the above reaction. After dissolving the formazan crystals in DMSO or isopropanol, a coloured solution was formed, the intensity of which is measured spectrophotometrically within the wavelength range of 492–570 nm. The amount of coloured reduced MTT is proportional to the oxidative activity of the cell’s mitochondria and, under strictly defined experimental conditions, to the number of metabolically active (living) cells in the population. The MTT test can also be used to determine cell viability in populations of cells that no longer divide but are metabolically active."}, "[2]": {"test_system": "S. aureus strain (ATCC 23235)", "type": "cell-based, Staphylococcus aureus", "conditions": "S. aureus (ATCC 23235)"}, "[3]": {"test_system": "E. coli (K12 (ATCC 25404), R2 (ATCC 39544), R3 (ATCC 11775), R4 (ATCC 39543)), A. baumannii (ATCC 17978), P. aeruginosa (ATCC 15442), E. cloacae (ATCC 49141) …", "experiment": "Minimum inhibitory concentration (MIC), microtiter plate method with resazurin", "type": "cell-based, S. aureus", "conditions": "Gram-negative and Gram-positive bacteria", "source_text": "The reference bacterial strains of E.coli (K12 ATCC 25404, R2 ATCC 39544, R3 ATCC 11775, and R4 ATCC 39543) and Staphylococcus aureus strain (ATCC 23235), as well as Acinetobacter baumannii (ATCC 17978), Pseudomonas aeruginosa (ATCC 15442), and Enterobacter cloacae (ATCC 49141) were obtained from LGC Standards U.K. and were used according to the recommendation of ISO 11133 [30]. These strains were used to test the antibacterial activity of the analysed compounds by determining the minimum inhibitory concentration (MIC) and minimum bactericidal concentration (MBC), as described in [8, 9, 26, 27, 28, 29, 30, 31]. The results are shown in Figures S33 and S34 in the Supplementary Materials.\nMIC and MBC were estimated using a microtiter plate method with sterile 48- or 96-well plates, which is precisely described in [9]. Briefly, MIC and MBC, defined as the lowest concentration of a bacteriostatic agent, were determined. Briefly, 50 μL of the analysed compounds and the appropriate bacterial strains were added to the first row of the plate. Then, 25 μL of sterile Tryptone Soya Broth (TSB) medium was added to the other wells, and serial dilutions were performed. Subsequently, 200 μL of inoculated TSB medium containing resazurin (0.02 mg/mL) as an indicator was added to all wells. TSB medium was inoculated with 10^6 colony-forming units (CFU)/mL (approximately 0.5 McFarland units) of the bacterial strains. The plates were incubated at 30 °C for 24 h. Changes in colour from blue to pink or yellowish with turbidity were considered positive, and the lowest concentration at which no visible change in colour occurred was recorded as the MIC, according to Kowalczyk et al.. Each experiment (both MIC and MBC) was repeated at least three times."}, "[4]": {"test_system": "S. aureus", "conditions": "against S. aureus; cited from earlier work"}, "[5]": {"test_system": "BALB/c3T3 mouse embryonic fibroblast cell line", "experiment": "MTT cytotoxicity assay", "method": "as §1"}},
  "data": [
    {"compound": "CC(=O)Oc1cc(Br)ccc1C(OC(=O)Cc1ccccc1)C(=O)NCc1ccccc1", "note": "(stereo not drawn)", "values": [
      {"measurement": "melting point", "result": "122 to 124", "unit": "°C"}
    ]},
    {"compound": "Cc1onc(-c2ccccc2Cl)c1C(=O)N[C@@H]1C(=O)N2[C@@H]1SC(C)(C)[C@@H]2C(=O)O", "note": "[cloxacillin, reference compound]", "values": [
      {"measurement": "viability", "setting": "[1]; BALB/c3T3 mouse embryonic fibroblast cells", "result": "85 to 89.9", "unit": "%"}
    ]},
    {"compound": "COc1ccc(CNC(=O)C(OC(=O)Cc2ccccc2)c2c(OC(C)=O)ccc3c(C(F)(F)F)cc(=O)oc23)cc1", "note": "(stereo not drawn) [Compound 9, 1-(7-Acetoxy-2-oxo-4-(trifluoromethyl)-2H-chromen-8-yl)-2-((4-methoxybenzyl)amino)-2-oxoethyl 2-phenylacetate]", "values": [
      {"measurement": "activity against S. aureus", "setting": "[2]", "result": "very potent activity"},
      {"measurement": "spectrum of antibacterial activity", "setting": "[3]", "result": "broad-spectrum activity"},
      {"measurement": "melting point", "result": "54 to 58", "unit": "°C"}
    ]},
    {"compound": "CC(=O)Oc1ccc2c(C)cc(=O)oc2c1C(OC(=O)Cc1ccccc1)C(=O)NCc1ccc(F)cc1", "note": "(stereo not drawn) [Compound 6, 1-(7-Acetoxy-4-methyl-2-oxo-2H-chromen-8-yl)-2-((4-fluorobenzyl)amino)-2-oxoethyl 2-phenylacetate]", "values": [
      {"measurement": "viability at 24 h, 2 µg/mL", "setting": "[1]", "result": 87, "unit": "%"},
      {"measurement": "melting point", "result": "56 to 59", "unit": "°C"}
    ]},
    {"compound": "Cc1cc(=O)oc2c(C)c(OCc3ccc(-c4ccccc4)cc3)ccc12", "note": "[Compound B]", "values": [
      {"measurement": "IC50", "setting": "[4]", "result": 3, "unit": "µM"}
    ]},
    {"compound": "COc1ccc(CNC(=O)C(OC(=O)Cc2ccccc2)c2c(OC(C)=O)ccc3ccc(=O)oc23)cc1", "note": "(stereo not drawn) [Compound 4, 1-(7-Acetoxy-2-oxo-2H-chromen-8-yl)-2-((4-methoxybenzyl)amino)-2-oxoethyl 2-phenylacetate]", "values": [
      {"measurement": "spectrum of antibacterial activity", "setting": "[3]", "result": "broad-spectrum activity"},
      {"measurement": "melting point", "result": "57 to 59", "unit": "°C"}
    ]},
    {"compound": "CC(=O)Oc1ccccc1C(OC(=O)Cc1ccccc1)C(=O)NCc1ccccc1", "note": "(stereo not drawn) [Compound 15, 1-(2-Acetoxyphenyl)-2-(benzylamino)-2-oxoethyl 2-phenylacetate]", "values": [
      {"measurement": "viability at 24 h, 2 µg/mL", "setting": "[1]", "result": 66.5, "unit": "%"}
    ]},
    {"compound": "CC(=O)Oc1ccc2ccc(=O)oc2c1C(OC(=O)Cc1ccccc1)C(=O)NCc1ccc(F)cc1", "note": "(stereo not drawn)", "values": [
      {"measurement": "melting point", "result": "61 to 63", "unit": "°C"}
    ]},
    {"compound": "1-(7-Acetoxy-4-methyl-2-oxo-2H-chromen-8-yl)-2-((4-fluorobenzyl)amino)-2-oxoethyl 2-phenylacetate [Compound 1]", "values": [
      {"measurement": "spectrum of antibacterial activity", "setting": "[3]", "result": "broad-spectrum activity"},
      {"measurement": "IC50 for fibroblasts", "setting": "[5]; after 24 h of incubation", "result": 4.26, "unit": "µg/mL"}
    ]},
    {"compound": "COc1ccc(CNC(=O)C(OC(=O)Cc2ccccc2)c2c(OC(C)=O)ccc3c(C)cc(=O)oc23)cc1", "note": "(stereo not drawn) [Compound 2, 1-(7-Acetoxy-4-methyl-2-oxo-2H-chromen-8-yl)-2-((4-methoxybenzyl)amino)-2-oxoethyl 2-phenylacetate]", "values": [
      {"measurement": "spectrum of antibacterial activity", "setting": "[3]", "result": "broad-spectrum activity"},
      {"measurement": "melting point", "result": "66 to 68", "unit": "°C"}
    ]},
    {"compound": "COc1ccc(CNC(=O)C(OC(=O)Cc2ccccc2)c2ccc(Br)cc2OC(C)=O)cc1", "note": "(stereo not drawn)", "values": [
      {"measurement": "melting point", "result": "107 to 108", "unit": "°C"}
    ]},
    {"compound": "CC(=O)Oc1ccc2c(C(F)(F)F)cc(=O)oc2c1C(OC(=O)Cc1ccccc1)C(=O)NCc1ccccc1", "note": "(stereo not drawn)", "values": [
      {"measurement": "melting point", "result": "54 to 57", "unit": "°C"}
    ]},
    {"compound": "CC(=O)Oc1ccc2ccc(=O)oc2c1C(OC(=O)Cc1ccccc1)C(=O)NCc1ccccc1", "note": "(stereo not drawn) [Compound 3, 1-(7-Acetoxy-2-oxo-2H-chromen-8-yl)-2-(benzylamino)-2-oxoethyl 2-phenylacetate]", "values": [
      {"measurement": "spectrum of antibacterial activity", "setting": "[3]", "result": "broad-spectrum activity"},
      {"measurement": "melting point", "result": "64 to 66", "unit": "°C"}
    ]},
    {"compound": "COc1ccc(CNC(=O)C(OC(=O)Cc2ccccc2)c2ccccc2OC(C)=O)cc1", "note": "(stereo not drawn) [Compound 14, 1-(2-Acetoxyphenyl)-2-((4-methoxybenzyl)amino)-2-oxoethyl 2-phenylacetate]", "values": [
      {"measurement": "IC50", "setting": "[5]; Mus musculus, BALB/c3T3, 24 h, read-out: IC50 for fibroblasts", "result": 7.22, "unit": "µg/mL"}
    ]},
    {"compound": "Cc1cc(=O)oc2cc(OCc3ccc(-c4ccccc4)cc3)ccc12", "note": "[A]", "values": [
      {"measurement": "IC50", "setting": "[4]", "result": 9.7, "unit": "µM"}
    ]},
    {"compound": "COc1ccc(CNC(=O)C(O)c2ccc(Br)cc2O)cc1", "note": "(stereo not drawn)", "values": [
      {"measurement": "melting point", "result": "96 to 100", "unit": "°C"}
    ]},
    {"compound": "CC(=O)Oc1ccc2c(C(F)(F)F)cc(=O)oc2c1C(OC(=O)Cc1ccccc1)C(=O)NCc1ccc(F)cc1", "note": "(stereo not drawn)", "values": [
      {"measurement": "melting point", "result": "51 to 55", "unit": "°C"}
    ]}
  ]
}
